Values after ≈ are worked out from the molar mass of the structure shown. Marks after values point to notes of the source that are not given here.
What was measured:
[1] = Solubility in normal saline; format: physicochemical; settings: saline or isotonic
Protocol: The structures of the compounds C1-C5 and their solubilities in normal saline are as follows:
Furthermore, other derivatives were also prepared. The structures and solubilities in normal saline are as follows: […]

Kunming mice = test: Anesthetic efficacy on mice (disappearance of righting reflex); format: in vivo; settings: for Behavior of animals / Number of anesthetized animals: 9 mg/kg caudal vein injection, 0.9 mg/ml; for Number of anesthetized animals: 6 per group, disappearance of righting reflex
Protocol: Kunming mice (SPF, Chongqing Medical University Animal Center) were randomly grouped with 6 animals in each group. The dosage as 9 mg/kg was administered via caudal vein injection for 3-5 seconds. The performances during animal experiments were recorded with the standard of disappearance of righting reflex.

[2] = system: GABAA receptor benzodiazepines site; test: In vitro affinity with GABAA receptor benzodiazepines site (3H-flunitrazepam displacement, brain membrane); format: binding, SD rat
[3] = Oil/water partition coefficient (n-octanol/water); format: physicochemical; settings: 1 mg/ml aqueous solution, room temperature
Protocol: Remirnazolam and compound C2 were formulated into aqueous solution of 1 mg/ml respectively, 10 ml of prepared solution were measured and n-octanol with equal volume was added.

[4] = Rat plasma decomposition in vitro; format: in vitro ADME; settings: 37° C.
Protocol: Remimazolam and compound C2 were formulated in normal saline of respectively. 0.1 ml of the solution was measured and added into plasma of rat (living Kunming species, SPF, Animal center of Chongqing Medical University). Mixing was performed sufficiently, and the mixture was placed in constant temperature water bath of 37° C. 2 ml of acetonitrile was added immediately after taking samples at different time-points. Shaking and centrifugation at 1000 rpm/min were conducted to obtain supernatant and HPLC measurement was performed.

[5] = Anesthetic ED50, LD50 and TI index of rats (sequential method); format: in vivo; settings: rat, in vivo, intravenous; male SD rats, caudal vein injection in 10 seconds, death
Protocol: (§1) Anesthetic ED50 (median effective dose) value and LD50 (half lethal dose) value of rats are determined by sequential method. Healthy male SD rats (SPF, Qinglongshan animal breeding center of Nanjing), n-10˜20, were administrated via caudal vein injection and injection was completed in 10 seconds at a constant speed. The rough dosage that cause anesthesia (or death) of animal was found by preliminary test before experiment and used as middle dosage for the formal experiment. The spacing of each group was set as 0.8, and 2-3 dose-groups were set up and down, respectively. During the formal experiment, administration began from the group of middle dosage. When the animal was anaesthetized (or dead), administration was reduced by a dose unit; if the animal was not anaesthetized (or death), administration was increased by a dose unit until 3-4 reversal were found. The disappearance of righting reflex or death was used as judgment index, respectively. The ot425 software was used to calculate LD50 and ED50. Treatment index (TI index) was calculated by LD50 and ED50 value=LD50/ED50.

SD rats = test: as above; format: in vivo; settings: for ED50: Rattus norvegicus, male SD rats, caudal vein injection in 10 seconds, disappearance of righting reflex; for TI index: rats, LD50/ED50
Protocol: as §1

Kunming rats = test: Anesthetic induction time and waking up time of rats via intravenous bolus; format: in vivo; settings: for Number of anesthetic animals: 2*ED50 caudal vein injection in 10 seconds, 10 per group; for Induction time: 2*ED50 i.v. bolus, time to disappearance of righting reflex
Protocol: (§2) Kunming rats (SPF, Qinglongshan animal breeding center of Nanjing), half male and half female, were divided into groups with 10 animals in each group. The dosage of administration was 2*ED50 (ED50 value was detected in Example 12) and caudal vein injection was done at a constant speed in 10 seconds. The time for the disappearance of right reflex (latent period) and recovery time (duration period) of rats were recorded.

rats = test: as above; format: in vivo; settings: 2*ED50 i.v. bolus, recovery time
Protocol: as §2

[6] = system: New Zealand white rabbits; test: Rabbits anesthetic ED50 (sequential method); format: in vivo; settings: Oryctolagus cuniculus, ear vein injection in 30 seconds, disappearance of righting reflex
Protocol: Anesthetic ED50 values of rabbits are determined by sequential method. Healthy New Zealand white rabbits (SPF, Peizhou rabbit breeding center) were administrated via ear vein injection at a constant speed in 30 seconds. The rough dosage that cause anesthesia (or death) of animal were found by preliminary test before experiment and used as middle dosage for the formal experiment. The spacing of each group was set as 0.8 and 2-3 dose-groups were set up and down, respectively. The disappearance of righting reflex or death was used as judgment index of efficacy or toxicity, respectively. During the formal experiment, administration began from the group of middle dosage. When the animal was anesthetized (or dead), administration was reduced by a dose unit; if the animal was not anesthetized (or dead), administration was increased by a dose unit, until 3-4 reversal occurred. The disappearance of righting reflex or death was used as judgment index, respectively. The ot425 software was used to calculate ED50.

[7] = system: New Zealand white rabbits; test: Anesthetic induction time and waking up time of rabbits via intravenous bolus; format: in vivo; settings: for Number of anesthetic animals: 1.0 mg/kg (2*ED50) ear vein injection in 30 seconds, 8 per group; for Duration / Induction time: 1.0 mg/kg (2*ED50) i.v. bolus
Protocol: New Zealand white rabbits (SPF, Peizhou rabbit breeding center), half male and half female, were divided into groups with 8 animals in each group. The dosage of administration was 2*ED50 (ED50 value was detected in Example 14), and was administrated via ear vein injection at a constant speed in 30 seconds. The time (latent period) for the disappearance of right reflex and recovery time (duration period) of rabbits were recorded.

[8] = system: New Zealand white rabbits; test: Long-term venous infusion experiment on rabbits; format: in vivo; settings: inducing dose 1.5 mg/kg (3*ED50), maintaining dose 22.5 mg/kg/h
Protocol: New Zealand white rabbits (SPF, Peizhou rabbit breeding center), half male and half female, were divided into groups with 10 animals in each group. The dosage of each administration was 3*ED50 (ED50 value was detected in Example 14) as inducing dosage when intravenous injection was performed on rabbits. An appropriate dosage was infused as maintaining dosage for 30 min. […] The effects of long-term infusion of medicine of the two groups on rabbits (breathe, salivation, excrement) were observed and the time from ceasing administration to the recovery of righting reflex of rabbits were recorded.

Macaca fascicularis = test: Anesthetic pharmacodynamic experiment on Macaca fascicularis; format: in vivo; settings: for Number of anesthetic animal/number of animal: disappearance of eyelid response
Protocol: Compound C2 showing significant efficacy on other animal, was administrated to Macaca fascicularis for anesthetic pharmacodynamic experiment. The rough anesthetic dosage of compound C2 for Macaca fascicularis was investigated by preliminary test before experiment and different dosages were set for the formal experiment. Intravenous administration was performed in 60±10s. The disappearance of eyelid response of animal was used to judge whether anesthesia occurred on the animal. The behaviors of animals were observed during duration period and the anesthetic effects of compound C2 on Macaca fascicularis were evaluated.

[9] = Hepatocyte metabolism experiment of CNS 7056 in vitro with formic acid; format: in vitro ADME; settings: formic acid added in liver cell nutrient solution at 0.1% (v/v)
Text: Therefore, after a long-term administration of remimazolam during ICU sedation process by ONO PHARMACEUTICAL CO., LTD, the metabolite methanol is easily oxidized to formic acid. Formic acid easily accumulates in vivo and inhibits hCES1 such that remimazolam is metabolized slowly, which may cause high serum concentration in some patients.

ICU patients = settings: of 49 ICU patients, sedation; cited from earlier work

Cc1ccc(S(=O)(=O)O)cc1.Cc1cnc2n1-c1ccc(Br)cc1C(c1ccccn1)=N[C@H]2CCC(=O)OCCC(C)C [C8, remimazolam acid isopentyl ester p-toluenesulfonate]
solubility [1]: 6 mg/mL | Behavior of animals (Kunming mice): Non-effect | Number of anesthetized animals (Kunming mice): 0/6

CCOC(=O)CC[C@@H]1N=C(c2ccccn2)c2cc(Br)ccc2-n2c(C)cnc21.CCS(=O)(=O)O [C5, remimazolam acid ethyl ester ethanesulfonate]
solubility [1]: 16 mg/mL

CCOC(=O)CC[C@@H]1N=C(c2ccccn2)c2cc(Br)ccc2-n2c(C)cnc21.CS(=O)(=O)O [C4, remimazolam acid ethyl ester methanesulfonate]
solubility [1]: 16 mg/mL

COC(=O)CC[C@@H]1N=C(c2ccccn2)c2cc(Br)ccc2-n2c(C)cnc21 [remimazolam, reference compound]
Number of anesthetized animals (Kunming mice): 6/6 | Inhibitory rate % ([2]; 1.0 × 10^−5M test compound, 1 nM 3H-flunitrazepam): 99.7* % | Inhibitory rate % ([2]; 1.0 × 10^−6M): 85.5% | Inhibitory rate % ([2]; 1.0 × 10^−7M): 47.0% | Inhibitory rate % ([2]; 1.0 × 10^−8M): 15.4% | Inhibitory rate % ([2]; 1.0 × 10^−9M): 6.8% | Inhibitory rate % ([2]; 1.0 × 10^−10M): 23.0% | IC50 ([2]; calculated by logit method): 15.8 nM | logP at 24 h [3]: 2.62 | Rat Plasma decomposition in vitro (%) ([4]; 10 s): 53.7% | Rat Plasma decomposition in vitro (%) ([4]; 30 s): 96.7% | Rat Plasma decomposition in vitro (%) ([4]; 1 min): 100% | LD50 [5]: 61.4 mg/kg | ED50 (SD rats): 5 mg/kg | TI index (SD rats): 12.3 | Number of anesthetic animals (Kunming rats): 10/10 | Induction time (Kunming rats): 52.1 ± 4.7 s | Duration (rats): 242.2 ± 68 s | ED50 [6]: 0.512 mg/kg | Number of anesthetic animals [7]: 8/8 | Duration [7]: 10.25 ± 2.72 min | Induction time [7]: 4.30 ± 2.38 min | Waking up time after intravenous drip for 30 min [8]: 33.91 ± 10.28 min | Duration (Macaca fascicularis; 3 mg/kg i.v.): 23.33 ± 6.71 min | Induction time (Macaca fascicularis; 3 mg/kg i.v.): 2.17 ± 0.41 s | Number of anesthetic animal/number of animal (Macaca fascicularis; 3 mg/kg i.v.): 3/3 | metabolism of CNS 7056 in hepatocytes [9]: totally inhibited | patients with higher serum concentration of remimazolam (ICU patients): Five | patients with prolonged waking up time (ICU patients): five

Cc1ccc(S(=O)(=O)O)cc1.Cc1cnc2n1-c1ccc(Br)cc1C(c1ccccn1)=N[C@H]2CCC(=O)OC1CCCCC1 [C9, remimazolam acid cyclohexyl ester p-toluenesulfonate]
solubility [1]: 5 mg/mL | Behavior of animals (Kunming mice): Non-effect | Number of anesthetized animals (Kunming mice): 0/6

CCOC(=O)CC[C@@H]1N=C(c2ccccn2)c2cc(Br)ccc2-n2c(C)cnc21.O=S(=O)(O)c1ccccc1 [C3, remimazolam acid ethyl ester benzenesulfonate]
solubility [1]: 15 mg/mL

CCOC(=O)CC[C@@H]1N=C(c2ccccn2)c2cc(Br)ccc2-n2c(C)cnc21 [C2, remimazolam acid ethyl ester p-toluenesulfonate]
solubility [1]: 15 mg/mL (≈ 33.1 mM) | Number of anesthetized animals (Kunming mice): 6/6 | logP at 24 h [3]: 3.28 | Rat Plasma decomposition in vitro (%) ([4]; 10 s): 61.4% | Rat Plasma decomposition in vitro (%) ([4]; 30 s): 99.0% | Rat Plasma decomposition in vitro (%) ([4]; 1 min): 100% | LD50 [5]: 30.7 mg/kg | ED50 (SD rats): 3.2 mg/kg | TI index (SD rats): 9.6 | Number of anesthetic animals (Kunming rats): 10/10 | Induction time (Kunming rats): 18.8 ± 3.0 s | Duration (rats): 267.4 ± 105 s | ED50 [6]: 0.512 mg/kg | Number of anesthetic animals [7]: 8/8 | Duration [7]: 13.19 ± 3.52 min | Induction time [7]: 1.80 ± 0.78 min | Waking up time after intravenous drip for 30 min [8]: 45.20 ± 12.59 min | Duration (Macaca fascicularis; 3 mg/kg i.v.): 28.67 ± 5.92 min | Induction time (Macaca fascicularis; 3 mg/kg i.v.): 2.00 ± 0.63 s | Number of anesthetic animal/number of animal (Macaca fascicularis; 3 mg/kg i.v.): 3/3 | Duration (Macaca fascicularis; 4 mg/kg i.v.): 31.67 ± 6.86 min | Induction time (Macaca fascicularis; 4 mg/kg i.v.): 1.74 ± 0.43 s | Number of anesthetic animal/number of animal (Macaca fascicularis; 4 mg/kg i.v.): 3/3 | Duration (Macaca fascicularis; 5 mg/kg i.v.): 36.21 ± 4.78 min | Induction time (Macaca fascicularis; 5 mg/kg i.v.): 1.48 ± 0.54 s | Number of anesthetic animal/number of animal (Macaca fascicularis; 5 mg/kg i.v.): 3/3

CCCOC(=O)CC[C@@H]1N=C(c2ccccn2)c2cc(Br)ccc2-n2c(C)cnc21.Cc1ccc(S(=O)(=O)O)cc1 [C7, remimazolam acid n-propyl ester p-toluenesulfonate]
solubility [1]: 8 mg/mL | Number of anesthetized animals (Kunming mice): 0/6

Cc1ccc(S(=O)(=O)O)cc1.Cc1cnc2n1-c1ccc(Br)cc1C(c1ccccn1)=N[C@H]2CCC(=O)OC(C)C [C6, remimazolam acid isopropyl ester p-toluenesulfonate]
solubility [1]: 8 mg/mL | Number of anesthetized animals (Kunming mice): 6/6 | anesthetic effect on the mice (Kunming mice; 9 mg/kg i.v.): has anesthetic effect on the mice | toxicity in mice (Kunming mice; 9 mg/kg i.v.): shows some toxicity
